Experiments:
[1] = molecular target: T1, Epidermal growth factor receptor (Homo sapiens, UniProt P00533); test: Inhibition of Epidermal growth factor receptor from A431 cells
[2] = molecular target: T1, Epidermal growth factor receptor; test: Evaluation of inhibitory activity against phospholipase C-gamma1 phosphorylation by Epidermal growth factor receptor enzyme isolated from A431 cells.

T1 sequence (P00533 whole entry): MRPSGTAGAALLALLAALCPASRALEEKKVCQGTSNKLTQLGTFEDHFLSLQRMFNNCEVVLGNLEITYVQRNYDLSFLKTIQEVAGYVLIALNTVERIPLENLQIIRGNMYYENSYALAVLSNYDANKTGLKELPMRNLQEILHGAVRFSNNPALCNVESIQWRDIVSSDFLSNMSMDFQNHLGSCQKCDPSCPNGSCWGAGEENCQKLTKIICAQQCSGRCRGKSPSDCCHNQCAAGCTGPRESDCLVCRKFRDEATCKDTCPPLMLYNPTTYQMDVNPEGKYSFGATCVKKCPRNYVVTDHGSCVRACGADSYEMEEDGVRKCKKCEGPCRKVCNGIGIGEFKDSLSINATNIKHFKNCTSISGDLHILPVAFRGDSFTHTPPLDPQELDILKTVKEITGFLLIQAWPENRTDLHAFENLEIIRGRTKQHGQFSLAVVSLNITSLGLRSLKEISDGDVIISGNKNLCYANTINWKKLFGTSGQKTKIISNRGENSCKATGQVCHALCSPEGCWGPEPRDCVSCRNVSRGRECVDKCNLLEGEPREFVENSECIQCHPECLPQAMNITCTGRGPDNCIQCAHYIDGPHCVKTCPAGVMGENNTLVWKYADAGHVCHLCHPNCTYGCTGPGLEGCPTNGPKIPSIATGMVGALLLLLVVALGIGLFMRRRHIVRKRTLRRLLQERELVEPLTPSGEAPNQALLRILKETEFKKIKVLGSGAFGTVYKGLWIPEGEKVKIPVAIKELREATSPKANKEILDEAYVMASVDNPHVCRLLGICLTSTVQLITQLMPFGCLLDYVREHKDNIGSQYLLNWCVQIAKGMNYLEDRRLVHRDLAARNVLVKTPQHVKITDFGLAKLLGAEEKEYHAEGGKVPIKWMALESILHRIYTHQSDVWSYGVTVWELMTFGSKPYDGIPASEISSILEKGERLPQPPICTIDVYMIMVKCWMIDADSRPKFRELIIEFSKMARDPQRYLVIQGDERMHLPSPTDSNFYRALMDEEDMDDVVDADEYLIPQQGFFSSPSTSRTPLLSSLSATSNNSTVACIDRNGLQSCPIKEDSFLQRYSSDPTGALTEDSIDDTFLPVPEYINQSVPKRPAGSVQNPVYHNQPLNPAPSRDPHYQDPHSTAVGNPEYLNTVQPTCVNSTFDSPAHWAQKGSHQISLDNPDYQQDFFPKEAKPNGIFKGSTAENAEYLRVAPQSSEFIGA

SMILES | IC50 [1] [nM] | IC50 [2] [nM]
c1ccc(CNc2ncnc3ccccc23)cc1 | 320 | –
COc1cc2ncnc(NCc3ccccc3)c2cc1O | – | 56
O=[N+]([O-])c1cccc2ncnc(Nc3cccc(Br)c3)c12 | 355 | –
O=[N+]([O-])c1ccc2c(NCc3ccccc3)ncnc2c1 | – | 5900
COc1ccc(CNc2ncnc3ccccc23)cc1 | – | 10000
Clc1ccc(CNc2ncnc3ccccc23)cc1 | – | 7000
O=[N+]([O-])c1cccc2c(NCc3ccccc3)ncnc12 | > 10000 | –
Brc1cccc(Oc2ncnc3ccccc23)c1 | – | 756
c1ccc(CCNc2ncnc3ccccc23)cc1 | – | 4100
Nc1cccc2c(NCc3ccccc3)ncnc12 | > 10000 | –
Brc1cccc(Nc2cnnc3ccccc23)c1 | – | > 10000
O=[N+]([O-])c1ccc2ncnc(NCc3ccccc3)c2c1 | – | > 10000
COc1cccc2ncnc(Nc3cccc(Br)c3)c12 | – | 139
O=[N+]([O-])c1cccc2c(Nc3cccc(Br)c3)ncnc12 | – | > 10000
Nc1cccc2ncnc(NCc3ccccc3)c12 | – | > 10000
O=[N+]([O-])c1cccc2ncnc(NCc3ccccc3)c12 | – | 8000
Brc1cccc(Nc2nnnc3ccccc23)c1 | – | > 1000
COc1cccc2c(Nc3cccc(Br)c3)ncnc12 | 974 | –
CN(c1ccccc1)c1ncnc2ccccc12 | – | 100000
COc1cc2ncnc(NCc3ccccc3)c2cc1OC | – | 10
Brc1cccc(Nc2nncc3ccccc23)c1 | – | > 100000
COc1ccc2c(NCc3ccccc3)ncnc2c1 | – | 58

SMILES | IC50 [1] [nM] | IC50 [2] [nM]
Nc1cc2ncnc(Nc3cccc(Br)c3)c2cc1N | – | 0.12
O=[N+]([O-])c1ccc2ncnc(Nc3cccc(Br)c3)c2c1 | – | 897
Clc1cccc(Nc2ncnc3ccccc23)c1 | – | 23
COc1cccc2ncnc(NCc3ccccc3)c12 | – | 4900
Nc1ccc2c(NCc3ccccc3)ncnc2c1 | – | > 1000
Brc1cccc(Nc2cnc3ccccc3n2)c1 | – | > 100000
Nc1ccc2ncnc(NCc3ccccc3)c2c1 | – | 1400
COc1ccc2ncnc(NCc3ccccc3)c2c1 | – | 200
Nc1cccc2c(Nc3cccc(Br)c3)ncnc12 | – | 105
Nc1cccc2ncnc(Nc3cccc(Br)c3)c12 | – | 439
COc1cc2c(NCc3ccccc3)ncnc2cc1O | – | 588
Brc1cccc(Nc2ccnc3ccccc23)c1 | – | 5500
Brc1cccc(Nc2nccc3ccccc23)c1 | – | > 100000
COc1cccc2c(NCc3ccccc3)ncnc12 | – | > 10000
Cc1cccc(Nc2ncnc3ccccc23)c1 | – | 910
COc1ccc2ncnc(Nc3cccc(Br)c3)c2c1 | – | 348
FC(F)(F)c1cccc(Nc2ncnc3ccccc23)c1 | – | 577
Ic1cccc(Nc2ncnc3ccccc23)c1 | – | 80
Oc1cc2ncnc(Nc3cccc(Br)c3)c2cc1O | 0.17 | –
COc1ccc2c(Nc3cccc(Br)c3)ncnc2c1 | – | 10
O=[N+]([O-])c1ccc2c(Nc3cccc(Br)c3)ncnc2c1 | – | 1000

Reference: ChEMBL document CHEMBL1128536, “Tyrosine kinase inhibitors. 5. Synthesis and structure-activity relationships for 4-[(phenylmethyl)amino]- and 4-(phenylamino)quinazolines as potent adenosine 5'-triphosphate binding site inhibitors of the tyrosine kinase domain of the epidermal growth factor receptor” (J Med Chem, 1995)
